The source of these data is patent US20220025334A1, “SYNTHETIC FOOD COMPOSITIONS” (Wild Type, Inc., priority 2018, published 2022).

Entries after “also recorded” stand apart in the source; their conditions may differ.

In the data set the test system is duck hepatocytes. Description: Induction of steatosis in cultured duck hepatocytes by fatty acid incubation. The data set is classed as cell-based.

As to `CCCCC/C=C\C/C=C\CCCCCCCC(=O)O` [linoleic acid], the “dose response: linoleic acid concentration versus percentage of hepatocytes having steatosis” value (0, 0.1, 0.25, 0.5, 1, 2 μM linoleic acid (FIG. 16B)) was “corresponding increase in the percentage of hepatocytes with steatosis”. The “induction of steatosis (accumulation of intracellular lipid-containing vesicles)” value (2 μM linoleic acid vs untreated control, duck hepatocytes (FIG. 16A)) is “successful induction of steatosis; also recorded: successfully induced to undergo steatosis”. For the same compound, the “percentage of steatotic hepatocytes” value (2 μM linoleic acid, duck hepatocytes (FIG. 16B)) is “above 85%”.
